In series [1] the test system is Human immunodeficiency virus 1. The series can be described thus: Antiviral activity against HIV1 NL4.3 infected in human PHA-blast cells from PBMC assessed as reduction in viral production measured as p24 protein expression cells pretreated for 1 hr with compound at 1 to 5 ug/ml and washed 1 hr after infection measured at day 4 post infection by flow cytometry. Type of series: functional, organism-based.

Series [2] deals with MOLT-4. Briefly: Reduction in membrane fluidity in human MOLT4 cells assessed as fluorescence polarization of DPH by spectrophotofluorometry. Type of series: functional, cell-based.
For series [3], the system named is MOLT-4. Briefly: Inhibition of HIV1 envelope Env-dependent cell fusion in JurkatHXBc2 cells expressing Env co-cultured with 1 hr at compound treated PKH67-labelled human MOLT4 cells at 1:1 ratio for 24 hrs by flow cytometry. Type of series: cell-based. Conditions: Human immunodeficiency virus 1.
The subject of series [4] is MOLT-4. Briefly: Inhibition of HIV1 envelope Env-dependent cell fusion in JurkatHXBc2 cells expressing Env co-cultured with 1 hr at compound treated PKH67-labelled human MOLT4 cells at 1:1 ratio for 24 hrs by fluorescent microscopy. Type of series: cell-based. The settings on record: Human immunodeficiency virus 1.
The subject of a further series is HEK-293T. The series can be described thus: Suppression of syncytial formation in HIV1 envelope Env-GFP expressing HEK293T cells co-cultured with 1 hr at up to 5 ug/ml compound treated human TZM-bl cells by fluorescent microscopy. It is filed as cell-based. The settings on record: Human immunodeficiency virus 1.
Another series concerns PBMC. The series can be described thus: Cytotoxicity against human PHA-blast cells from PBMC assessed as cell growth inhibition at 1 to 10 ug/ml washout after 1 hr measured at 24 hrs by MTT assay. Type of series: cell-based. For orientation: Formazan colour is commonly taken as a measure of viable cells.
The subject of series [5] is MOLT-4. The series can be described thus: Cytotoxicity against human MOLT4 cells assessed as cell growth inhibition at 1 to 10 ug/ml washout after 1 hr measured at 24 hrs by MTT assay. It is filed as cell-based.
In series [6] the test system is Human immunodeficiency virus 1. The series can be described thus: Antiviral activity against HIV1 NL4.3 infected in human PHA-blast cells from PBMC assessed as reduction in viral production measured as p24 protein expression cells pretreated for 1 hr with compound at 1 to 5 ug/ml and washed 1 hr after infection measured at day 4 post infection by ELISA. Type of series: functional, organism-based. (ELISA stands for enzyme-linked immunosorbent assay.)

Series [7] is described as follows: Cytotoxicity against human MOLT4 cells assessed as cell growth inhibition after 24 hrs by MTT assay. It is filed as cell-based. The settings on record: MOLT-4 cells.
The nature of series [8]: Cytotoxicity against human PHA-blast cells from CBMC assessed as cell growth inhibition at 1 to 10 ug/ml washout after 1 hr measured at 24 hrs by MTT assay. Type of series: cell-based.
In series [9] the test system is MOLT-4. Briefly: Cytotoxicity against human MOLT4 cells assessed as cell growth inhibition up to 20 ug/ml washout after 1 hr measured at 24 hrs by MTT assay. Type of series: cell-based. Conditions: molt-4, 1 h.
The nature of series [10]: Cytotoxicity against human TZM-bl cells assessed as cell growth inhibition at 1 to 10 ug/ml washout after 1 hr measured at 24 hrs by MTT assay. It is filed as cell-based.

Converted amounts (≈) assume the structure as drawn. The source made the active and inactive calls. No cut-off for these calls is given here.

By CC50 is commonly meant the concentration giving 50% cytotoxicity.

`COc1ccc2cc1Oc1ccc(cc1)C[C@H]1c3c(cc4c(c3Oc3cc5c(cc3OC)CCN(C)[C@@H]5C2)OCO4)CCN1C` [CEPHARANTHINE]: the inhibition entry in series [1] and in series [6] was “Active” in each case. Further, the Activity result in the series on MOLT-4 [2] was “Dose-dependent effect”; in the series with PBMC, “Non-toxic”; in the series on MOLT-4 [5], “Non-toxic”; in series [8] it was “Non-toxic”; with MOLT-4 [9], “Non-toxic”; in series [10], “Non-toxic”. In addition, the inhibition entry with MOLT-4 [3] and in the series on MOLT-4 [4] was “Dose-dependent effect” each time. In the series with HEK-293T, the result was Active. In addition, in [7], the CC50 at 24 h came out at 10 µg/mL (≈ 16.5 µM).

(Values after ChEMBL document CHEMBL3259734, “Cepharanthine inhibited HIV-1 cell-cell transmission and cell-free infection via modification of cell membrane fluidity” (Bioorg Med Chem Lett, 2014).)
